This is an account of results in US20240180898A1, “USE OF AMINOTHIAZOLE DERIVATIVE IN TREATMENT OF IMMUNE INFLAMMATION” (INNAMUNE PHARMACEUTICAL CO. LTD., priority 2021, published 2024).

Each structure is given as a SMILES string.

Common to all, as to format: in vivo, mouse
Assay [1] deals with inflammatory colon cancer model. Briefly: AOM/DSS induced inflammatory colon cancer model. The method, then:
Preparation and grouping of mouse inflammatory colon cancer model:
Model preparation: 6-8-week-old male C57 mice were intraperitoneally injected with AOM (10 mg/Kg)/DSS (2.5%) to induce an inflammatory colon cancer model.
The experiment was divided into two groups, namely: • Inflammatory colon cancer model group (without any treatment, i.e. AOM/DSS group), TJ-M2010-5 medication group (intraperitoneal injection). The specific handling method is as follows: • TJ-M2010-5 medication group: Two days before inducing inflammatory colon cancer in C57 mice by intraperitoneal injection of AOM (10 mg/kg)/DSS (2.5%), TJ-M2010-5 was injected intraperitoneally at a dose of 50 mg/kg once a day for 10 consecutive weeks.

The subject of assay [2] is H22 hepatocellular carcinoma cells. In words: subcutaneous H22 hepatocellular carcinoma implantation. To be noted: balb/c mice. From the text:
H22 hepatocellular carcinoma cells were subcutaneously implanted in balb/c mice and allowed to grow freely. The animals were divided into two groups: the INNA1605 (TJ-M2010-5) group and the non-drug control group.

For the next assay, the system named is skin wound. Briefly: full-thickness dorsal skin wound model. From the text: The mice were anesthetized with isoflurane, and 1.5×0.5 cm full-thickness defects were created on their dorsal skin. Animals were divided into three groups: Sham group, Vehicle group and TJ-5 group. After 1 week, mice were sacrificed and wound tissue was harvested for analysis.
Where [3] appears, read: intraperitoneal 50 mg/kg once a day, 10 weeks.

Turning to `O=C(CCN1CCN(Cc2ccccc2)CC1)Nc1nc(-c2ccccc2)cs1` [INNA1605, 3-(4-benzylpiperazine-1-yl)-N-(4-phenylthiazole-2-yl) propionamide], in assay [1] (BrdU, Ki-67), the “proliferation of epithelial cells in the colon mucosa” value was “significantly inhibited”. Further, the neutrophil infiltration entry in assay [1] (MPO staining of colon mucosa) is “significantly reduced”. In assay [1] (setting [3]), the “inflammatory tissue damage of the colon mucosa” value is “significantly reduced” and the therapeutic effect entry is “excellent”. Also, in assay [1] (model group 100% cancerous transformation), the no carcinogenesis observed was determined as 100%. In addition, in assay [1] (mouse, in vivo), the colitis entry was “disappeared” and the mucosal thickening result is “improved”. For the same molecule, the tumor size entry in assay [2] is “significantly smaller than that in the control group”. The skin scar formation result in the assay on skin wound (FIG. 42) was “prevents skin scar formation”. Further, in the assay on skin wound (after 1 week, vs untreated), the “levels of IL-1β, IL-6, TNF-α, G-CSF, Col I, and α-SMA mRNAs in wound tissue” value was “significantly lower”. Also, the wound area result in the assay with skin wound (vs vehicle) is “significant decrease in wound area compared to the vehicle”.
